# Reference: patent US20240409510A1 (priority 2022, published 2024)
# Target: SARS-CoV-2 3CLpro (Severe acute respiratory syndrome coronavirus 2, UniProt P0DTD1)
# Type: biochemical
# Settings: pH 7.5
row,SMILES,Activity of SARS-CoV-2 MPro inhibitors
1,CCCN(CCC)[C@@H]1C[C@@H](C(=O)NC(C[C@@H]2CCNC2=O)C(=O)C(=O)c2ccccc2)N(C(=O)[C@@H](NC(=O)C(F)(F)F)C(C)(C)C)C1 (stereo partly shown) [Compound 1],A+++ (key: A >100 μM; A+ <50 μM; A++ <10 μM; A+++ <1 μM)
2,CC(C)O[C@@H]1C[C@@H](C(=O)NC(C[C@@H]2CCNC2=O)C(=O)C(=O)c2ccccc2)N(C(=O)[C@@H](NC(=O)C(F)(F)F)C(C)(C)C)C1 (stereo partly shown) [Compound 2],A+++ (key: A >100 μM; A+ <50 μM; A++ <10 μM; A+++ <1 μM)
3,CC(C)(C)C(NC(=O)C(F)(F)F)C(=O)N1C[C@H]2[C@@H](C1C(=O)N[C@@H](C[C@@H]1CCNC1=O)C(=O)C(=O)c1ccccc1)C2(C)C (stereo partly shown) [Compound 3],A+++ (key: A >100 μM; A+ <50 μM; A++ <10 μM; A+++ <1 μM)
4,CC(C)(C)[C@H](NC(=O)C(Cl)(Cl)Cl)C(=O)N1C[C@H]2[C@@H]([C@H]1C(=O)NC(C[C@@H]1CCNC1=O)C(=O)C(=O)c1ccccc1)C2(C)C (stereo partly shown) [Compound 4],A++ (key: A >100 μM; A+ <50 μM; A++ <10 μM; A+++ <1 μM)
5,Cc1ccc(C(=O)C(=O)[C@H](C[C@@H]2CCNC2=O)NC(=O)C2[C@@H]3[C@H](CN2C(=O)C(NC(=O)C(F)(F)F)C(C)(C)C)C3(C)C)cc1 (stereo partly shown) [Compound 5],A+++ (key: A >100 μM; A+ <50 μM; A++ <10 μM; A+++ <1 μM)
6,CC(C)(C)OC(=O)NC(C(=O)N1C[C@H]2[C@@H](C1C(=O)N[C@@H](C[C@@H]1CCNC1=O)C(=O)C(=O)c1ccc(F)cc1)C2(C)C)C(C)(C)C (stereo partly shown) [Compound 6],A+++ (key: A >100 μM; A+ <50 μM; A++ <10 μM; A+++ <1 μM)
7,CC(C)(C)C(NC(=O)C(F)(F)F)C(=O)N1C[C@H]2[C@@H](C1C(=O)N[C@@H](C[C@@H]1CCNC1=O)C(=O)C(=O)c1ccc(F)cc1)C2(C)C (stereo partly shown) [Compound 7],A+++ (key: A >100 μM; A+ <50 μM; A++ <10 μM; A+++ <1 μM)
8,COc1ccc(C(=O)C(=O)[C@H](C[C@@H]2CCNC2=O)NC(=O)C2[C@@H]3[C@H](CN2C(=O)C(NC(=O)C(F)(F)F)C(C)(C)C)C3(C)C)cc1 (stereo partly shown) [Compound 8],A+++ (key: A >100 μM; A+ <50 μM; A++ <10 μM; A+++ <1 μM)
9,CC(C)(C)C(NC(=O)C(Cl)(Cl)Cl)C(=O)N1C[C@H]2[C@@H](C1C(=O)N[C@@H](C[C@@H]1CCNC1=O)C(=O)C(=O)c1ccccc1)C2(C)C (stereo partly shown) [Compound 9],A (key: A >100 μM; A+ <50 μM; A++ <10 μM; A+++ <1 μM)
10,Cc1cc(C)cc(C(=O)C(=O)[C@H](C[C@@H]2CCNC2=O)NC(=O)C2[C@@H]3[C@H](CN2C(=O)C(NC(=O)C(F)(F)F)C(C)(C)C)C3(C)C)c1 (stereo partly shown) [Compound 10],A+++ (key: A >100 μM; A+ <50 μM; A++ <10 μM; A+++ <1 μM)
11,CCCC(=O)C(=O)[C@H](C[C@@H]1CCNC1=O)NC(=O)C1[C@@H]2[C@H](CN1C(=O)C(NC(=O)C(F)(F)F)C(C)(C)C)C2(C)C (stereo partly shown) [Compound 11],A+++ (key: A >100 μM; A+ <50 μM; A++ <10 μM; A+++ <1 μM)
12,CC(C)(C)[C@H](NC(=O)C(F)(F)F)C(=O)N1Cc2ccccc2C[C@H]1C(=O)N[C@@H](C[C@@H]1CCNC1=O)C(=O)C(=O)c1ccccc1 [Compound 12],A+++ (key: A >100 μM; A+ <50 μM; A++ <10 μM; A+++ <1 μM)
13,CC(C)(C)[C@H](NC(=O)C(F)(F)F)C(=O)N1Cc2ccccc2C[C@H]1C(=O)NC(CC1CCCNC1=O)C(=O)C(=O)c1ccccc1 (stereo partly shown) [Compound 13],A+ (key: A >100 μM; A+ <50 μM; A++ <10 μM; A+++ <1 μM)
14,CCCC(=O)C(=O)[C@H](C[C@@H]1CCNC1=O)NC(=O)[C@@H]1Cc2ccccc2CN1C(=O)[C@@H](NC(=O)C(F)(F)F)C(C)(C)C [Compound 14],A++ (key: A >100 μM; A+ <50 μM; A++ <10 μM; A+++ <1 μM)
15,COc1ccccc1C(=O)C(=O)[C@H](C[C@@H]1CCNC1=O)NC(=O)C1[C@@H]2[C@H](CN1C(=O)C(NC(=O)C(F)(F)F)C(C)(C)C)C2(C)C (stereo partly shown) [Compound 15],A+++ (key: A >100 μM; A+ <50 μM; A++ <10 μM; A+++ <1 μM)
16,CCCC(=O)C(=O)[C@H](C[C@@H]1CCNC1=O)NC(=O)[C@@H]1Cc2ccccc2CN1C(=O)[C@@H](NC(=O)OCc1ccncc1)C(C)(C)C [Compound 16],A+++ (key: A >100 μM; A+ <50 μM; A++ <10 μM; A+++ <1 μM)
17,CC(C)(C)[C@H](NC(=O)CCc1ccccc1)C(=O)N1Cc2ccccc2C[C@H]1C(=O)N[C@@H](C[C@@H]1CCNC1=O)C(=O)C(=O)c1ccccc1 [Compound 17],A+++ (key: A >100 μM; A+ <50 μM; A++ <10 μM; A+++ <1 μM)
18,CC(C)(C)[C@H](NC(=O)/C=C/c1ccccc1)C(=O)N1Cc2ccccc2C[C@H]1C(=O)N[C@@H](C[C@@H]1CCNC1=O)C(=O)C(=O)c1ccccc1 [Compound 18],A+++ (key: A >100 μM; A+ <50 μM; A++ <10 μM; A+++ <1 μM)
19,CC(C)(C)C(NC(=O)C(F)(F)F)C(=O)N1C[C@H]2[C@@H](C1C(=O)N[C@@H](C[C@@H]1CCNC1=O)C(=O)C(=O)c1ccncc1)C2(C)C (stereo partly shown) [Compound 20],A++ (key: A >100 μM; A+ <50 μM; A++ <10 μM; A+++ <1 μM)
